Test results: the NIST ThermoML archive (doi:10.1016/j.fluid.2008.06.003)
± gives the expanded uncertainty stated by the source.

Tests used:
[1] = refractive index (Na D-line) (dimensionless); conditions: 298.15 K; 101.33 kPa; Liquid; Standard Abbe refractometry
[2] = 298.15 K, 101.33 kPa, Liquid

Row | SMILES | refractive index [1] | mass density ([2]; Vibrating tube method) | mass density [2]
1 | CCCCCCn1cc[n+](C)c1.F[P-](F)(F)(F)(F)F [1-hexyl-3-methylimidazolium hexafluorophosphate] | 1.41787 ± 0.001 | 1293.7 ± 9.1 kg/m3 | 
2 | CCCCCCCC[n+]1ccn(C)c1.F[P-](F)(F)(F)(F)F [1-octyl-3-methylimidazolium hexafluorophosphate] | 1.42302 ± 0.001 | 1235.7 ± 8.3 kg/m3 | 
3 | CCO [ethanol] | 1.35929 ± 0.00031 |  | 785.1 ± 0.5 kg/m3
4 | CCCCCCC [heptane] | 1.38517 ± 0.00037 |  | 679.5 ± 1 kg/m3
5 | CCCCCC [hexane] | 1.37217 ± 0.00037 |  | 654.9 ± 1.1 kg/m3
